{
  "source": "patent US20120270250A1",
  "about": "“TEST SYSTEM FOR MEASURING MEST ACTIVITY AS WELL AS METHODS AND USES INVOLVING THE SAME” (SANOFI, priority 2009, published 2012)",
  "key": {"MEST T579B": {"target": "T1, MEST T579B (Homo sapiens, UniProt Q5EB52)", "T1 construct": "T579B=amino acids 2-335 and T580B=amino acids 11-335; made in house; host or cells: Sf9 insect cells (baculovirus, pVL1392); crude total membranes", "T1 sequence (Q5EB52 2-335)": "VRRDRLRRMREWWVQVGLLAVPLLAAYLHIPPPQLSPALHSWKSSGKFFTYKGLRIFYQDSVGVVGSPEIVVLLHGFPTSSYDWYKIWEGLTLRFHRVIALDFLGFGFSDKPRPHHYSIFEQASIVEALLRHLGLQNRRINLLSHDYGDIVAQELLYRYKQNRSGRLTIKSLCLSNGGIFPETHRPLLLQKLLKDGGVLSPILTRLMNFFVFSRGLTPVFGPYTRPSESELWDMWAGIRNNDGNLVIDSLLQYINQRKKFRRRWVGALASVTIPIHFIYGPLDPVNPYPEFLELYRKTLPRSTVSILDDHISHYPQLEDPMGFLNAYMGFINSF", "experiment": "Glycerol 3-phosphate acyl transferase activity, MEST T579B-recombinant Sf9 crude membranes", "type": "biochemical", "description": "(§1) The assay for determining glycerol 3-phosphate acyl transferase is based on the following principle:\n(§2) Glycerol 3-phosphate acyl transferase activity was determined as incorporation of palmitate with palmitoyl CoA as acyl donor and radio-labeled [^3H] glycerol 3-phosphate as acyl acceptor, to obtain radio-labeled palmitoyl glycerol 3-phosphate. Radioactive-labeled product palmitoyl glycerol 3-phosphate was separated from the radio-labeled substrate by addition of a scintillator based on organic solvent in order to determine radioactivity in a suitable counter. After separation of phases, only radio-label in the organic solvent phase, which is saturated with scintillator, is detected, i.e. hydrophobic and amphiphilic substances as radio-labeled palmitoyl glycerol 3-phosphate. Hydrophilic radio-labeled glycerol phosphate, which has not been acylated, remains in the aqueous phase and is, therefore, not counted by the scintillation counter. The low amount of “cross-irradiation” from the aqueous phase to the organic phase was corrected by substracting a blank value of a control (containing all reaction components apart from MEST protein) for all MEST reactions.\n(§3) Membranes of insect cells expressing human recombinant MEST protein (as below) in homogenization buffer adjusted to the desired concentration (determination of protein content by BioRad assay)\n(§4) 10 μl enzyme solution were incubated with 50 μl reaction solution at 25° C. for 60 min. Incubation was carried out in an Eppendorf Thermomixer comfort with gentle agitation (450 min^−1), wherein the openings of the plate were sealed by a protection film (Whatman Uni Seal 7704-0009). The reaction was terminated by addition of 5 μl 200 mM glycerol 3-phosphate and 200 μl scintillation liquid (beta-plate, #1205-440, Perkin Elmer) and incubation under agitation as above at 25° C. for 15 min. After at least 12 hours of incubation at 25° C. without agitation for separation of the phases, radioactivity (in dpm) was measured in a scintillation counter (Wallac 1450 micro beta).\n(§5) The enzyme solution (total membranes of Sf9 insect cells) was produced as follows: Sf9 insect cells were pelleted by centrifugation and frozen in aliquots (about 7-9 g). When needed, pelleted Sf9 insect cells were quickly thawed in a 37° C. water bath and kept on ice until further processing. Thereafter, they were transferred into a 50 ml glass homogenizer containing 10 ml homogenization buffer and, additionally, 0.5 mM DTT for preparing a suspension. Cells were homogenized in a teflon-in-glass homogenizer (10×1500/min at 4° C.). The homogenate was transferred into JA25.5 centrifugation tubes (Beckman #363647), diluted with 10 ml homogenization buffer plus DTT and pelleted by centrifugation (500 g, 5 min, 4° C., refrigerated centrifuge Beckman Avanti JA25I). The supernatant was transferred into ultracentrifugation tubes (Beckman #355618) and centrifugated (100000 g, 60 min, 4° C., Beckman Optima LE-80K). The supernatant was completely removed. The pellet was two times carefully washed with homogenization buffer and then resuspended in homogenization buffer. Enzyme solution was aliquoted, frozen in liquid nitrogen and stored at −80° C.\nThe experiment was carried out as detailed above. Particularly, crude membranes from insect cells (SF9) transfected to express MEST (T579B) were produced and assayed for glycerol 3-phosphate acyltransferase activity (dpm/test) in the presence of A003564556 or S987600. […]\nThe experiment was carried out as detailed above. Particularly, crude membranes of non-transfected insect cells (SF9) or insect cells (SF9) transfected to express either MEST (T579B) or GPAT (GPAT1, -3 or -4) were produced and assayed in the presence of 1 mM N-Ethylmaleimide (NEM) for 1 h or at 41° C. for 10 min."}, "[1]": {"test_system": "endogenous insect cell glycerol 3-phosphate acyltransferase activities", "experiment": "Glycerol 3-phosphate acyl transferase activity, non-transfected Sf9 crude membranes", "type": "biochemical, Sf9 insect cells", "conditions": "1 mM NEM for 1 h", "description": "as §1, §2, §4\nas §5, with “The pellet was two times carefully washed with homogenization buffer and then resuspended in homogenization buffer. Enzyme solution was aliquoted, frozen in liquid nitrogen and stored at −80° C.” left out"}, "MEST T580B": {"target": "T2, MEST T580B (Homo sapiens, UniProt Q5EB52)", "T2 construct": "T579B=amino acids 2-335 and T580B=amino acids 11-335; made in house; host or cells: Sf9 insect cells (baculovirus, pVL1392); crude total membranes", "T2 sequence (Q5EB52 11-335)": "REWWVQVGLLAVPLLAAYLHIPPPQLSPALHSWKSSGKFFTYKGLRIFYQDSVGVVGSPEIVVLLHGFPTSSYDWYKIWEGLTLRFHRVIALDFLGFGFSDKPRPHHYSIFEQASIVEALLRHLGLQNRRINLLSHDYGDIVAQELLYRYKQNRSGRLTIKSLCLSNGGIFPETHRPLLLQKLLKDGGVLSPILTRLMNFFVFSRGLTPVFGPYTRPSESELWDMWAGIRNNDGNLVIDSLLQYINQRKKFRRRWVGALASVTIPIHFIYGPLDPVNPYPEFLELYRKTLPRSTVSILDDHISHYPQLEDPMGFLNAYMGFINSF", "experiment": "Glycerol 3-phosphate acyl transferase activity, MEST T580B-recombinant Sf9 crude membranes", "type": "biochemical", "conditions": "1 mM NEM for 1 h", "description": "as §1, §2, §3, §4\nas §5, with “The supernatant was transferred into ultracentrifugation tubes (Beckman #355618) and centrifugated (100000 g, 60 min, 4° C., Beckman Optima LE-80K). The supernatant was completely removed. The pellet was two times carefully washed with homogenization buffer and then resuspended in homogenization buffer. Enzyme solution was aliquoted, frozen in liquid nitrogen and stored at −80° C.” left out"}, "[2]": {"conditions": "inhibitor 0.3 μM, MEST T579B 10 μg/Test"}, "[3]": {"conditions": "inhibitor 1 μM, MEST T579B 10 μg/Test"}, "[4]": {"conditions": "inhibitor 3 μM, MEST T579B 10 μg/Test"}, "[5]": {"conditions": "inhibitor 10 μM, MEST T579B 10 μg/Test"}, "[6]": {"conditions": "inhibitor 30 μM, MEST T579B 10 μg/Test"}, "[7]": {"conditions": "inhibitor 100 μM, MEST T579B 10 μg/Test"}, "[8]": {"conditions": "inhibitor 200 μM, MEST T579B 10 μg/Test"}, "[9]": {"conditions": "1 mM NEM for 1 h, 10 μg Protein/Test"}, "[10]": {"conditions": "1 mM NEM for 1 h, 30 μg Protein/Test"}},
  "note": "pIC50: −log10 of the molar value.",
  "data": [
    {"molecule": "O=C(O)CCCCCCCCCCCNC(=O)NC12CC3CC(CC(C3)C1)C2", "note": "[A003564556]", "values": [
      {"measurement": "Inhibition of MEST activity (in words)", "setting": "MEST T579B; MEST T579B crude membranes", "result": "partially inhibited"},
      {"measurement": "Activity (dpm/Test)", "setting": "MEST T579B; [2]", "result": 905, "unit": "dpm/Test"},
      {"measurement": "inhibition at 0.3 µM", "setting": "MEST T579B; [2]", "result": -6, "unit": "%"},
      {"measurement": "Activity (dpm/Test)", "setting": "MEST T579B; [3]", "result": 1011, "unit": "dpm/Test"},
      {"measurement": "inhibition at 1 µM", "setting": "MEST T579B; [3]", "result": -19, "unit": "%"},
      {"measurement": "Activity (dpm/Test)", "setting": "MEST T579B; [4]", "result": 881, "unit": "dpm/Test"},
      {"measurement": "inhibition at 3 µM", "setting": "MEST T579B; [4]", "result": -4, "unit": "%"},
      {"measurement": "Activity (dpm/Test)", "setting": "MEST T579B; [5]", "result": 845, "unit": "dpm/Test"},
      {"measurement": "inhibition at 10 µM", "setting": "MEST T579B; [5]", "result": 1, "unit": "%"},
      {"measurement": "Activity (dpm/Test)", "setting": "MEST T579B; [6]", "result": 779, "unit": "dpm/Test"},
      {"measurement": "inhibition at 30 µM", "setting": "MEST T579B; [6]", "result": 8, "unit": "%"},
      {"measurement": "Activity (dpm/Test)", "setting": "MEST T579B; [7]", "result": 557, "unit": "dpm/Test"},
      {"measurement": "inhibition at 100 µM", "setting": "MEST T579B; [7]", "result": 34, "unit": "%"},
      {"measurement": "Activity (dpm/Test)", "setting": "MEST T579B; [8]", "result": 458, "unit": "dpm/Test"},
      {"measurement": "inhibition at 200 µM", "setting": "MEST T579B; [8]", "result": 48, "unit": "%"},
      {"measurement": "pIC50", "setting": "MEST T579B; partial inhibition of glycerol 3-phosphate acyl transferase activity", "result": "~3.70"}
    ]},
    {"molecule": "CCN1C(=O)C=CC1=O", "note": "[NEM, N-Ethylmaleimide]", "values": [
      {"measurement": "% Inhibition", "setting": "[1]; 10 μg Protein/Test", "result": 95, "unit": "%"},
      {"measurement": "Activity (dpm/Test)", "setting": "[1]; 10 μg Protein/Test", "result": 6, "unit": "dpm/Test"},
      {"measurement": "% Inhibition", "setting": "[1]; 30 μg Protein/Test", "result": 107, "unit": "%"},
      {"measurement": "Activity (dpm/Test)", "setting": "[1]; 30 μg Protein/Test", "result": "−12", "unit": "dpm/Test"},
      {"measurement": "Inhibition of MEST activity (in words)", "setting": "MEST T579B; 1 mM NEM for 1 h", "result": "completely"},
      {"measurement": "Activity (dpm/Test)", "setting": "MEST T579B; [9]", "result": 49, "unit": "dpm/Test"},
      {"measurement": "inhibition at 1000 µM", "setting": "MEST T579B; [9]", "result": 90, "unit": "%"},
      {"measurement": "Activity (dpm/Test)", "setting": "MEST T579B; [10]", "result": 53, "unit": "dpm/Test"},
      {"measurement": "inhibition at 1000 µM", "setting": "MEST T579B; [10]", "result": 94, "unit": "%"},
      {"measurement": "Activity (dpm/Test)", "setting": "MEST T580B; 10 μg Protein/Test", "result": "−11", "unit": "dpm/Test"},
      {"measurement": "inhibition at 1000 µM", "setting": "MEST T580B; 10 μg Protein/Test", "result": 101, "unit": "%"},
      {"measurement": "Activity (dpm/Test)", "setting": "MEST T580B; 30 μg Protein/Test", "result": 31, "unit": "dpm/Test"},
      {"measurement": "inhibition at 1000 µM", "setting": "MEST T580B; 30 μg Protein/Test", "result": 96, "unit": "%"}
    ]}
  ]
}
